According to ChEMBL document CHEMBL4373722, “Selective, Small-Molecule Co-Factor Binding Site Inhibition of a Su(var)3-9, Enhancer of Zeste, Trithorax Domain Containing Lysine Methyltransferase” (J Med Chem, 2019):
Blank lines part the entries; values can stand above or below the compound they belong to. Active and inactive are the calls of the source. No cut-off for these calls is given here.

Columns and labels:
[1] = biological target: T1, N-lysine methyltransferase SMYD2 (Homo sapiens, UniProt Q9NRG4); experiment: Inhibition of recombinant human SMYD2 (1 to 433 residues) expressed in baculovirus infected Sf9 insect cells at 40 uM using biotinylated-p53 peptide (361 to 380 residues) as substrate measured after 50 mins in presence of 70 nM [3H]-SAM by scintillation proximity assay relative to control
T1 sequence (Q9NRG4 whole entry, the tested form may be a part): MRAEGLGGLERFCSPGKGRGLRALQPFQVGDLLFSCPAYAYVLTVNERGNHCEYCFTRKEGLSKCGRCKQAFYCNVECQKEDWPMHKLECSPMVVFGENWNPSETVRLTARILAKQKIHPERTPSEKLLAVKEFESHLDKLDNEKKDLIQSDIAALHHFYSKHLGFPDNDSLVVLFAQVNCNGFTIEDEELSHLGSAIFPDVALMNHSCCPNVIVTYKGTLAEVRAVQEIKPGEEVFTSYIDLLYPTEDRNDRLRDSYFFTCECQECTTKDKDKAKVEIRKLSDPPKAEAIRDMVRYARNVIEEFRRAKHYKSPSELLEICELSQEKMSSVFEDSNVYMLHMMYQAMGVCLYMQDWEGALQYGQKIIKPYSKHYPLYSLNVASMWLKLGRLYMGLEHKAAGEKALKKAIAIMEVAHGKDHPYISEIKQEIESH

[2] = biological target: T1, N-lysine methyltransferase SMYD2; experiment: Inhibition of recombinant human SMYD2 (1 to 433 residues) expressed in baculovirus infected Sf9 insect cells using biotinylated-p53 peptide (361 to 380 residues) as substrate measured after 50 mins in presence of 70 nM [3H]-SAM by scintillation proximity assay
[3] = biological target: T1, N-lysine methyltransferase SMYD2; experiment: Inhibition of V5-tagged SMYD2 (unknown origin) transfected in human MCF7 cells co-transfected with FLAG-tagged p53 assessed as reduction in p53 methylation at K370 residue at 10 to 30 uM measured after 20 hrs by immunoblot analysis; format: cell-based
[4] = biological target: T1, N-lysine methyltransferase SMYD2; experiment: Inhibition of recombinant human SMYD2 (1 to 433 residues) expressed in baculovirus infected Sf9 insect cells using biotinylated-p53 peptide (361 to 380 residues) as substrate measured after 120 mins in presence of 20 uM [3H]-SAM by scintillation proximity assay
[5] = biological target: T1, N-lysine methyltransferase SMYD2; experiment: Inhibition of V5-tagged SMYD2 (unknown origin) transfected in human MCF7 cells co-transfected with FLAG-tagged p53 assessed as reduction in p53 methylation at K370 residue measured after 20 hrs by immunoblot analysis; format: cell-based
[6] = biological target: T1, N-lysine methyltransferase SMYD2; experiment: Inhibition of V5-tagged SMYD2 (unknown origin) transfected in human MDA-MB-231 cells co-transfected with FLAG-tagged p53 assessed as reduction in p53 methylation at K370 residue measured after 20 hrs by immunoblot analysis; format: cell-based
[7] = biological target: T1, N-lysine methyltransferase SMYD2; experiment: Inhibition of V5-tagged SMYD2 (unknown origin) transfected in human HeLa cells co-transfected with FLAG-tagged p53 assessed as reduction in p53 methylation at K370 residue measured after 20 hrs by immunoblot analysis; format: cell-based
[8] = biological target: T1, N-lysine methyltransferase SMYD2; experiment: Inhibition of V5-tagged SMYD2 (unknown origin) transfected in HEK293 cells co-transfected with FLAG-tagged p53 assessed as reduction in p53 methylation at K370 residue measured after 20 hrs by immunoblot analysis; format: cell-based
[9] = biological target: T1, N-lysine methyltransferase SMYD2; experiment: Inhibition of V5-tagged SMYD2 (unknown origin) transfected in human CAL120 cells co-transfected with FLAG-tagged p53 assessed as reduction in p53 methylation at K370 residue measured after 20 hrs by immunoblot analysis; format: cell-based
[10] = biological target: T1, N-lysine methyltransferase SMYD2; experiment: Inhibition of V5-tagged SMYD2 (unknown origin) transfected in human U2OS cells co-transfected with FLAG-tagged p53 assessed as reduction in p53 methylation at K370 residue measured after 20 hrs by immunoblot analysis; format: cell-based
[11] = system: MCF7; experiment: Cytotoxicity against human MCF7 cells up to 10 uM measured after 5 days by IncuCyte zoom live cell analysis; format: cell-based; settings: mcf7, 120 h
[12] = system: U2OS; experiment: Cytotoxicity against human U2OS cells up to 10 uM measured after 5 days by IncuCyte zoom live cell analysis; format: cell-based; settings: 120 h
[13] = Cytotoxicity against human TERA2D cells up to 10 uM measured after 5 days by IncuCyte zoom live cell analysis; format: cell-based; settings: 120 h
[14] = biological target: T1, N-lysine methyltransferase SMYD2; experiment: Competitive inhibition of recombinant human SMYD2 (1 to 433 residues) expressed in baculovirus infected Sf9 insect cells using biotinylated-p53 peptide (361 to 380 residues) as substrate measured after 50 mins in presence of varying levels of [3H]-SAM by scintillation proximity assay
[15] = biological target: T1, N-lysine methyltransferase SMYD2; experiment: Mixed inhibition of recombinant human SMYD2 (1 to 433 residues) expressed in baculovirus infected Sf9 insect cells using varying levels of biotinylated-p53 peptide (361 to 380 residues) as substrate measured after 50 mins in presence of 2 uM [3H]-SAM by scintillation proximity assay
[16] = biological target: Histone-lysine N-methyltransferase KMT5B (Homo sapiens) (UniProt Q4FZB7); experiment: Inhibition of SUV420H1 (unknown origin) at 1 uM using biotin-labeled peptide as substrate and [3H]-SAM measured after 1 hr by scintillation proximity assay
Histone-lysine N-methyltransferase KMT5B (Homo sapiens), sequence (Q4FZB7 whole entry, looked up): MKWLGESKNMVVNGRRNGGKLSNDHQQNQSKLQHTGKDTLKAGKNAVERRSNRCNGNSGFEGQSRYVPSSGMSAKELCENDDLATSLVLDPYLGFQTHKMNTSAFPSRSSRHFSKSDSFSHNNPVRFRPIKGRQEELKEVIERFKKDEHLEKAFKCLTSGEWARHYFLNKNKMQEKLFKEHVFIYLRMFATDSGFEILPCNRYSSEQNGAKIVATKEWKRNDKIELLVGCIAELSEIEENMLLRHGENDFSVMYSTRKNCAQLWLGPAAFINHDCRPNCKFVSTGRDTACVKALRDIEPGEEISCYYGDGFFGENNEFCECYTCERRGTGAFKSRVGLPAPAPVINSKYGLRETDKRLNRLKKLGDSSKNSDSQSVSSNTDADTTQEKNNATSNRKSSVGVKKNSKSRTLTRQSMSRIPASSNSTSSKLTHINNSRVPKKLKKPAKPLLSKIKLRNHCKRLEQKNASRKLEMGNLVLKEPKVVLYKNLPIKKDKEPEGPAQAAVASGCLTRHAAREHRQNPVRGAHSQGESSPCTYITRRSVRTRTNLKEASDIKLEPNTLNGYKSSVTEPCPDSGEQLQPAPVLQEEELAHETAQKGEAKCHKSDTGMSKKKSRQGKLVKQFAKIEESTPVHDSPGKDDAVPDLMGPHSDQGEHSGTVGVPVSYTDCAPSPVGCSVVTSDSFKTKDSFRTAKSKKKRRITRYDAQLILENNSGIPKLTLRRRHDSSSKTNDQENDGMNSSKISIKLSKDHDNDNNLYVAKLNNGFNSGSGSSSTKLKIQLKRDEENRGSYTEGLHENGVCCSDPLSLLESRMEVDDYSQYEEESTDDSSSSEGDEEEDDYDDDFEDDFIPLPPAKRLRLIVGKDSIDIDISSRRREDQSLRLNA

[17] = biological target: Histone-lysine N-methyltransferase KMT5C (Homo sapiens) (UniProt Q86Y97); experiment: Inhibition of SUV420H2 (unknown origin) at 1 uM using biotin-labeled peptide as substrate and [3H]-SAM measured after 1 hr by scintillation proximity assay
Histone-lysine N-methyltransferase KMT5C (Homo sapiens), sequence (Q86Y97 whole entry, looked up, the tested form may be a part): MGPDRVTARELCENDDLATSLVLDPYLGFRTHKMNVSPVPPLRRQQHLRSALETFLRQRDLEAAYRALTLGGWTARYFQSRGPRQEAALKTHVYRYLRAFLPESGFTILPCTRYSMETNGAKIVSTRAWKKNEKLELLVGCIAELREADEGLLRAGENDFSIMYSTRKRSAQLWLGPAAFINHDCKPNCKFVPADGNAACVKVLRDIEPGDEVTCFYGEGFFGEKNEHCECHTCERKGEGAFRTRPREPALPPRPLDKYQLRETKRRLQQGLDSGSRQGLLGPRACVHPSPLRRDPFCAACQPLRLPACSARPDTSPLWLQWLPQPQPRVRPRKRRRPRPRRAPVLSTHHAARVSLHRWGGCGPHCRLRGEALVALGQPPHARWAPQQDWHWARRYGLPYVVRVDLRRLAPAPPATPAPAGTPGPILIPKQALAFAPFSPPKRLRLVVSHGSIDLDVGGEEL

[18] = species on record: Homo sapiens; experiment: Selectivity ratio of IC50 for SUV420H1 (unknown origin) to IC50 for recombinant human SMYD2 (1 to 433 residues) expressed in baculovirus infected Sf9 insect cells at 40 uM using biotinylated-p53 peptide (361 to 380 residues) as substrate measured after 50 mins in presence of 70 nM [3H]-SAM
[19] = biological target: Histone-lysine N-methyltransferase KMT5B (Homo sapiens) (UniProt Q4FZB7); experiment: Inhibition of SUV420H1 in human MCF7 cells assessed as decrease in H4K20me3 level up to 50 uM measured after 2 days by immunoblot analysis; format: cell-based
[20] = biological target: Histone-lysine N-methyltransferase KMT5C (Homo sapiens) (UniProt Q86Y97); experiment: Inhibition of SUV420H2 in human MCF7 cells assessed as decrease in H4K20me3 level up to 50 uM measured after 2 days by immunoblot analysis; format: cell-based
[21] = species on record: Homo sapiens; experiment: Selectivity ratio of IC50 for SUV420H1 in human MCF7 cells to IC50 for V5-tagged SMYD2 (unknown origin) transfected in human MCF7 cells co-transfected with FLAG-tagged p53; format: cell-based
[22] = species on record: Homo sapiens; experiment: Selectivity ratio of IC50 for SUV420H2 in human MCF7 cells to IC50 for V5-tagged SMYD2 (unknown origin) transfected in human MCF7 cells co-transfected with FLAG-tagged p53; format: cell-based
[23] = Lipophilicity, log D of the compound; format: physicochemical; settings: octanol/water
[24] = biological target: T1, N-lysine methyltransferase SMYD2; experiment: Inhibition of V5-tagged SMYD2 (unknown origin) transfected in human MCF7 cells co-transfected with FLAG-tagged p53 assessed as reduction in p53 methylation at K370 residue at 10 uM measured after 20 hrs by immunoblot analysis relative to control; format: cell-based
[25] = species on record: Homo sapiens; experiment: Selectivity ratio of IC50 for SUV420H2 (unknown origin) to IC50 for recombinant human SMYD2 (1 to 433 residues) expressed in baculovirus infected Sf9 insect cells at 40 uM using biotinylated-p53 peptide (361 to 380 residues) as substrate measured after 50 mins in presence of 70 nM [3H]-SAM
[26] = biological target: T1, N-lysine methyltransferase SMYD2; experiment: Inhibition of V5-tagged SMYD2 (unknown origin) transfected in human MCF7 cells co-transfected with FLAG-tagged p53 assessed as reduction in p53 methylation at K370 residue at 30 uM measured after 20 hrs by immunoblot analysis; format: cell-based
[27] = system: MCF7; experiment: Effect on total p53 level in human MCF7 cells co-transfected with V5-tagged SMYD2/FLAG-tagged p53 up to 30 uM measured after 20 hrs by immunoblot analysis; format: ADME, cell-based; settings: mcf7, 20 h
[28] = biological target: T1, N-lysine methyltransferase SMYD2; settings: MCF7, 1 uM
Description: Inhibition of V5-tagged SMYD2 (unknown origin) transfected in human MCF7 cells co-transfected with FLAG-tagged p53 assessed as reduction in p53 methylation at K370 residue at 1 uM measured after 20 hrs by immunoblot analysis relative to control

SMILES: CC(C)N1CCN(Cc2cc(C(=O)N3CC(n4cnc5c(N)ncnc54)C3)nn2C)CC1
inhibition [1]: > 50%
IC50 [2]: 760 nM

SMILES: Cc1cc2c(ncn2C2(C)CN(C(=O)c3ccn(CC4CCN([C@@H]5C=CCCCC5)CC4)c3C)C2)c(N)n1
inhibition [3]: inactive

SMILES: Cc1nc(N)c2ncn(C3CN(C(=O)c4cc(CC5CCN(C6CCCCCC6)CC5)n(C)n4)C3)c2n1
IC50 [2]: 32 nM
IC50 [4]: 3000 nM

SMILES: Cc1nc(N)c2ncn(C3(C)CN(C(=O)c4cc(CN5CCN(C6CCCCCC6)CC5)n(C)n4)C3)c2n1
IC50 [2]: 58 nM
IC50 [4]: 3000 nM

SMILES: CCN(C(=O)CO)[C@H]1CN(/C(=N\C#N)Nc2cccc(OC(F)F)c2)N=C1c1ccc(Cl)c(Cl)c1
inhibition [28]: 100%

More lines, main results first:

IC50 [2]: 8 nM
IC50 [4]: 16 nM
IC50 [5]: 1300 nM
IC50 [6]: 1300 to 3000 nM
IC50 [7]: 1300 to 3000 nM
IC50 [8]: 1300 to 3000 nM
IC50 [9]: 1300 to 3000 nM
IC50 [10]: 1300 to 3000 nM
inhibition [14]: Active
inhibition [15]: Active
inhibition [16]: Active
inhibition [17]: Active
inhibition [19]: inactive
inhibition [20]: inactive
logD [23]: 1.3
inhibition [24]: 100%
SMILES: Cc1cc2c(ncn2C2(C)CN(C(=O)c3ccn(CC4CCN([C@H]5C=CCCCC5)CC4)c3)C2)c(N)n1
Activity [11]: Non-Toxic
Activity [12]: Non-Toxic
Activity [13]: Non-Toxic
Ratio IC50 [18]: > 60
Ratio IC50 [21]: 30
Ratio IC50 [22]: 30
Ratio IC50 [25]: > 60

IC50 [2]: 6 nM
IC50 [4]: 23 nM
inhibition [26]: Active
SMILES: Cc1nc(N)c2ncn(C3CN(C(=O)c4ccn(CC5CCN(C6C=CCCCC6)CC5)c4)C3)c2n1 (configuration not stated)
Activity [27]: Non-Toxic

IC50 [2]: 23 nM
IC50 [4]: 4000 nM
SMILES: Cc1nc(N)c2ncn(C3CN(C(=O)c4ccn(CC5CCN(C6CCCCCC6)CC5)c4)C3)c2n1
